Several values for one entry are separate records, joined by “and”; a condition that tells them apart may be missing. Equal entries are not always repeated. Entries after “also recorded” stand apart in the source; their conditions may differ.
Columns and labels:
[1] = Hepatocyte clearance, human; assay type: in vitro ADME; set-up: Hepatocyte clearance human: unit not given here; settings: for Hepatocyte clearance human: human hepatocytes, as printed in Table S14
Protocol: (§1) Compounds 1–3 were characterized in a hybrid reporter gene assay for their agoniztic effect on human nuclear receptors PPARα/γ/δ, RXRα, FXRα, RARα in HEK293T cells. Compound 1 was tested in an isothermal titration calorimetry (ITC) assay to measure direct binding affinity to the ligand-binding domain of PPARγ. ADME properties were measured in standardized assays at Roche.
(§2) SI11Absorption Distribution Metabolism and Excretion and Toxicity Data
(§3) To assess the drug-like characteristics of the newly designed PPAR modulators, a series of tests were conducted covering various aspects of absorption, distribution, metabolism, and excretion (ADME) properties. Specifically, these assessments included the parallel artificial membrane permeability assay (PAMPA) with permeation co- […]
efficients ([…]), LogD measurements, microsomal clearance, hepatocyte clearance, P-glycoprotein (Pgp) efflux ratio and binding and the unbound free fraction. […]
Table S14: Absorption distribution metabolism and excretion (ADME) properties of compounds 1 and 2. The […]
values for […], LogD, protein binding, P-glycoprotein (Pgp) efflux ratio and permeability, and hepato-cyte clearance are presented as the mean and standard deviation, with a sample size of N = 3, i.e., 3 technical replicates each. The values for microsomal clearance and CYP-inhibition represent single point measurements.
Microsomal clearance, human (µL·min−1·mg−1 protein) ≥10 ≥10 ≥10
Microsomal clearance, mouse (µL·min−1·mg−1 protein) ≥10 ≥10 ≥10
Microsomal clearance, rat (µL·min−1·mg−1 protein) ≥10 ≥10 ≥10
Protein binding human (% free fraction) (%) - 0.21 0.42
PgP Transport mouse apical efflux ratio - 1.6 1.2
PgP Transport mouse permeability (nm·sec−1) - 15 60 […]

[2] = biological target: T1, liver X receptor (LXR)α (Homo sapiens, UniProt Q13133); test: Nuclear receptor selectivity profiling, hybrid reporter gene assay, LXRα; assay type: cell-based
T1 construct: LXRα (pFA-CMV-hLXRα-LBD[104], 1 μM TO901317); expressed in transfected cells; host or cells: HEK293T
T1 sequence (Q13133 209-447 limits assumed): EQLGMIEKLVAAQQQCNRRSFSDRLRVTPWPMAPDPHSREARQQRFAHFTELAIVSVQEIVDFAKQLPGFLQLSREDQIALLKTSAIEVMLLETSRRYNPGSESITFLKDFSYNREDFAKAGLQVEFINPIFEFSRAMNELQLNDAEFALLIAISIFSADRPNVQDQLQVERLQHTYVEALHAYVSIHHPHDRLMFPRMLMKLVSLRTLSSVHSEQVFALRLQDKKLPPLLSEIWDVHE
Protocol: (§4) PPAR activation was determined in uniform Gal4-hybrid reporter gene assays for the PPARα, PPARγ and PPARδ isoforms in HEK293T cells (German Collection of Microorganisms and Cell Culture GmbH, DSMZ) which were transiently transfected with pFR-Luc (Stratagene, La Jolla, CA, USA; reporter) and pRL-SV40 (Promega, Madison, WI, USA; internal control) and one pFA-CMV-hPPAR-LBD[97] clone, coding for the hinge region and ligand binding domain of the canonical isoform of human PPARα, PPARγ, PPARδ or respectively. Cells were cultured in Dulbecco’s modified Eagle’s medium (DMEM), high glucose supplemented with 10% fetal calf serum (FCS), sodium pyruvate (1 mM), penicillin (100 U ⋅ ml^-1), and streptomycin (100 μg ⋅ ml^-1) at 37 °C and 5% CO2 and seeded in 96-well plates (3 × 10^4 cells per well). After 24 h, medium was changed to Opti-MEM without supplements and cells were transiently transfected using Lipofectamine LTX reagent (Invitrogen) according to the manufacturer’s protocol. Five hours after transfection, cells were incubated with the test compounds in Opti-MEM supplemented with penicillin (100 U ⋅ ml^-1), streptomycin (100 μg ⋅ ml^-1) and 0.1% DMSO for 16 h before luciferase activity was measured using the Dual-Glo Luciferase Assay System (Promega) according to the manufacturer’s protocol on a Tecan Spark luminometer (Tecan Deutschland GmbH, Germany). Firefly luminescence was divided by Renilla luminescence and multiplied by 1000 resulting in relative light units (RLU) to normalize for transfection efficiency and cell growth. Fold activation was obtained by dividing the mean RLU of a test compound by the mean RLU of the untreated control. All samples were tested in at least three biologically independent experiments in duplicates. For dose-response curve fitting and calculation of EC50 values, the equation “[Agonist] versus response (variable slope—four parameters)” was used in GraphPad Prism (version 7.00, GraphPad Software, La Jolla, CA, USA) with fold activation data. The reference agonizts GW7647 (PPARα)[98],[99], pioglitazone (PPARγ)[100],[101] and L165,041 (PPARδ)[102],[103] were used to validate the assays and to monitor assay performance. Nuclear receptor selectivity profiling was performed with corresponding pFA-CMV-hNR-LBD clones and suitable reference agonizts on RARα (pFA-CMV-hRARα-LBD[104], 1 μM tretinoin), LXRα (pFA-CMV-hLXRα-LBD[104], 1 μM TO901317) and RXRα (pFA-CMV-h RXRα-LBD[105], 1 μM Bexarotene).

[3] = biological target: T2, retinoid X receptor (RXR)α (Homo sapiens, UniProt P19793); test: Nuclear receptor selectivity profiling, hybrid reporter gene assay, RXRα; assay type: cell-based
T2 construct: RXRα (pFA-CMV-h RXRα-LBD[105], 1 μM Bexarotene); expressed in transfected cells; host or cells: HEK293T
T2 sequence (P19793 227-458 limits assumed): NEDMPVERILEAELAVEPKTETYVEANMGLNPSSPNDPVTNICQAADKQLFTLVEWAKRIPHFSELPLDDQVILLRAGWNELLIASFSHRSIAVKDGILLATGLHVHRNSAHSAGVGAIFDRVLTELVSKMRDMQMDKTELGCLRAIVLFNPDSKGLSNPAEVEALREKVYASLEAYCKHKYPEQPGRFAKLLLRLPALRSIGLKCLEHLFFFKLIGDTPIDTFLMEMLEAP
Protocol: as §1, §4

[4] = tested on: cytochrome P450 isoenzymes (Cyp3A4, Cyp1A2, Cyp2B6, Cyp2C9, Cyp2D6, Cyp2C19, Cyp2C8); test: CYP inhibition, summary over seven isoenzymes; assay type: in vitro ADME; settings: dose-response experiments up to 20 μM, result in words
Protocol: as §2, §3
efficients ([…]), LogD measurements, microsomal clearance, hepatocyte clearance, P-glycoprotein (Pgp) efflux ratio and binding and the unbound free fraction. Furthermore, the evaluation of inhibition po-tential against cytochrome P450 isoenzymes (CYP) proteins was investigated. For seven selected CYP proteins (i.e., Cyp3A4, Cyp1A2, Cyp2B6, Cyp2C9, Cyp2D6, Cyp2C19, and Cyp2C8) the half maximal inhibitory con-centration (IC50) was determined. (Table S15). […]
activity in the CYP assays was found.
Table S14: Absorption distribution metabolism and excretion (ADME) properties of compounds 1 and 2. […]
The values for microsomal clearance and CYP-inhibition represent single point measurements. […]
Molecule Enzyme Substrate IC50 (µM) […]

Row | Compound | clearance rate in human hepatocytes [1] | Hepatocyte clearance human [1] | LXRα reporter activation, replicate values (DMSO ctrl = 1,000) ([2]; 3 µM) | LXRα reporter activation, replicate values (DMSO ctrl = 1,000) ([2]; 10 µM) | RXRα reporter activation, replicate values (DMSO ctrl = 1,000) ([3]; 3 µM) | RXRα reporter activation, replicate values (DMSO ctrl = 1,000) ([3]; 10 µM) | interaction with the seven pivotal cytochrome P450 isoenzymes [4]
1 | COc1ccc(Oc2ccc3ncn(CCOc4ccc(CCC(=O)O)cc4)c3c2)cc1 [Compound 2] | 19 μL·min−1 10^6 cells−1 | 19 | 0,566 and 1,566 and 1,418 | 1,976 and 2,098 and 2,121 | 1,173 and 1,058 and 1,366 | 1,398 and 1,193 and 1,167 | did not echibit any relevant; also recorded: did not exhibit any relevant activity
2 | Cc1nnc(-c2ccc(OCCCOc3ccc(CCC(=O)O)c(F)c3)c(F)c2)s1 [Compound 1] | 19 μL·min−1 10^6 cells−1 | 19 | 1,029 and 1,028 and 1,248 | 3,397 and 1,447 and 1,490 | 1,140 and 1,672 and 0,965 | 0,945 and 2,262 and 0,954 | did not echibit any relevant; also recorded: did not exhibit any relevant activity

Reference: article PMC11035696, “Prospective de novo drug design with deep interactome learning” (Nature Communications, 2024)
